Several values for one entry are separate records, joined by “and”; a condition that tells them apart may be missing. Identical values can stand only once.
B1: α2δC: novel human α2δ-C calcium channel subunit (SEQ ID NO 5), expressed from injected cRNA (protein, listed as Homo sapiens)
chain: MAGPGSPRRASRGASALLAAALLYAALGDVVRSEQQIPLSVVKLWASAFGGEIKSIAAKYSGSQLLQKKYKEYEKDVAIEEIDGLQLVKKLAKNMEEMFHKKSEAVRRLVEAAEEAHLKHEFDADLQYEYFNAVLINERDKDGNFLELGKEFILAPNDHFNNLPVNISLSDVQVPTNMYNKDPAIVNGVYWSESLNKVFVDNFDRDPSLIWQYFGSAKGFFRQYPGIKWEPDENGVIAFDCRNRKWYIQAATSPKDVVILVDVSGSMKGLRLTIAKQTVSSILDTLGDDDFFNIIAYNEELHYVEPCLNGTLVQADRTNKEHFREHLDKLFAKGIGMLDIALNEAFNILSDFNHTGQGSICSQAIMLITDGAVDTYDTIFAKYNWPDRKVRIFTYLIGREAAFADNLKWMACANKGFFTQISTLADVQENVMEYLHVLSRPKVIDQEHDVVWTEAYIDSTLTDDQGPVLMTTVAMPVFSKQNETRSKGILLGVVGTDVPVKELLKTIPKYKLGIHGYAFAITNNGYILTHPELRLLYEEGKKRRKPNYSSVDLSEVEWEDRDDVLRNAMVNRKTGKFSMEVKKTVDKGKRVLVMTNDYYYTDIKGTPFSLGVALSRGHGKYFFRGNVTIEEGLHDLEHPDVSLADEWSYCNTDLHPEHRHLSQLEAIKLYLKGKEPLLQCDKELIQEVLFDAVVSAPIEAYWTSLALNKSENSDKGVEVAFLGTRTGLSRINLFVGAEQLTNQDFLKAGDKENIFNADHFPLWYRRAAEQIPGSFVYSIPFSTGPVNKSNVVTASTSIQLLDERKSPVVAAVGIQMKLEFFQRKFWTASRQCASLDGKCSISCDDETVNCYLIDNNGFILVSEDYTQTGDFFGEIEGAVMNKLLTMGSFKRITLYDYQAMCRANKESSDGAHGLLDPYNAFLSAVKWIMTELVLFLVEFNLCSWWHSDMTAKAQKLKQTLEPCDTEYPAFVSERTIKETTGNIACEDCSKSFVIQQIPSSNLFMVVVDSSCLCESVAPITMAPIEIRYNESLKCERLKAQKIRRRPESCHGFHPEENARECGGAPSLQAQTVLLLLPLLLMLFSR

Experiments:
Human α2δ-B = biological target: T1, Human α2δ-B (Homo sapiens, UniProt Q9NY47); assay: [3H]gabapentin saturation binding, membranes of transiently transfected COS-7 cells
T1 construct: transiently transfected with the full-length porcine α2δ-A, and human α2δ-B genes; expressed in transfected cells; host or cells: COS-7 cells, pcDNA3.1 vector, lipofectamine; membranes
T1 sequence (Q9NY47 19-1145 isoform Q9NY47-3 limits assumed): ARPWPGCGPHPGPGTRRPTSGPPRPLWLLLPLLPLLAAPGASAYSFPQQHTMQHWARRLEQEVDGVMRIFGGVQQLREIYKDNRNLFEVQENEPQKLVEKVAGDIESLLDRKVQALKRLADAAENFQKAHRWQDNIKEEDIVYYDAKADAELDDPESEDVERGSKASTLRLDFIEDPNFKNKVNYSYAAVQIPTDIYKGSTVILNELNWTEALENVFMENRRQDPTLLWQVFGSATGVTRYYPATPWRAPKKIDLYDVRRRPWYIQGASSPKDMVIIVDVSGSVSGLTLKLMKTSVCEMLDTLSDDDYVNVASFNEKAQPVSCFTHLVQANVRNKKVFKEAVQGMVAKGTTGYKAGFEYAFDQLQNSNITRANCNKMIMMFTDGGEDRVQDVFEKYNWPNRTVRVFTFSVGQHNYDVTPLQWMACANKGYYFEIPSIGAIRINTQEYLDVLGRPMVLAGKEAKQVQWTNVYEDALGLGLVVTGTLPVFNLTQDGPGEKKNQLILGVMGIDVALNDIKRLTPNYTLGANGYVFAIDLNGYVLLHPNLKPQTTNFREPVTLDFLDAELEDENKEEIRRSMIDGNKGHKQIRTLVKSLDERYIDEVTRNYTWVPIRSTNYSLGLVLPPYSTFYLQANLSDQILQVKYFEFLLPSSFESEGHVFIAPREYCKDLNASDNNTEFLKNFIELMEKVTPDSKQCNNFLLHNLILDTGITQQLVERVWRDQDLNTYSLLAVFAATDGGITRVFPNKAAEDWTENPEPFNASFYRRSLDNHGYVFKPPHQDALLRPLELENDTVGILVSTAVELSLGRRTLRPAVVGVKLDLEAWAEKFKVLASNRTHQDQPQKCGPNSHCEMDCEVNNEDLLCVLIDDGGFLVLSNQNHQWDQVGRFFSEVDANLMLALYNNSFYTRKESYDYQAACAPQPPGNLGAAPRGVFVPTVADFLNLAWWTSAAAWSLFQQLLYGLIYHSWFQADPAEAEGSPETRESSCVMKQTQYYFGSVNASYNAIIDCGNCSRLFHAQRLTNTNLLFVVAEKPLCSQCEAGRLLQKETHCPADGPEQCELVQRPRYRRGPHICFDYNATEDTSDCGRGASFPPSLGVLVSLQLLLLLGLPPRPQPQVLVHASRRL
Description: […]. […] […].
The filters were then counted in a scintillation counter.

[1] = test system: voltage-gated Ca2+ channels (α1B, β1C subunits); assay: Ca2+ channel currents in Xenopus oocytes injected with cRNA, two-electrode voltage clamp; format: cell-based; settings: for increase in current compared to no α2δ subunits: co-injected with α1B and β1C in Xenopus oocytes
Procedure: Since α2δ-C has sequence homology to α2δ-A, and α2δ-A functions as a subunit of VSCCs, experiments were undertaken to determine if α2δ-C can replace α2δ-A and produce functional VSCCs. Xenopus oocytes were isolated using standard techniques and injected with cRNA for α1B, β1C and α2δ-C subunits of voltage-gated Ca^2+ channels. Four days to 1 week following injection of cRNA, Ca^2+ channel currents were measured using two-electrode voltage clamp with 5 mM Ba^2+ as the charge carrier. Test pulses to +10 mV from a holding membrane potential of −80 mV were applied to evoke Ca^2+ channel currents. Peak inward currents evoked during the test pulse were measured. The amplitude of inward currents is proportional to the expression level of voltage-gated Ca^2+ channels.

Molecule	Kd (Human α2δ-B; KD, single determinations (n = 2), 21° C., COS-7 membranes)	Kd (Human α2δ-B; Mean KD, mean of n = 2) [nM]	binding of [3H]gabapentin (in words) (Human α2δ-B; full-length gene product expressed transiently in COS-7)	increase in current compared to no α2δ subunits [1] [fold]	peak inward current amplitude ([1]; co-injected with α1B and β1C, 5 mM Ba2+, test pulse to +10 mV from −80 mV, n=20, p<0.01 vs no α2δ) [nA]
NCC1(CC(=O)O)CCCCC1 [[3H]gabapentin, gabapentin]	32.6 nM and 87.2 nM	59.9	high affinity		
α2δA: known α2δ-A subunit of the voltage-sensitive calcium channel, comparator				20	
B1				2	213±12

Source: patent US7262052B1, “α-2/δ gene” (Warner Lambert Company, priority 1999, dated 2007)
